# Key:
# NF-κB pathway = assay: TNF-α assay in IFN-γ-differentiated, LPS-stimulated THP-1 cells (ELISA); assay type: cell-based; conditions: Homo sapiens, 50 ng/mL LPS, 3 hours
# In short: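 THP-1 cells differentiated with 25 ng/mL IFN-γ for 24 h, then preincubated 30 min at 37 °C with compound (1:3.16 serial dilutions) in serum-free medium. Stimulated with 50 ng/mL LPS for 3 h; supernatant assayed by human TNF-α ELISA. IC50 from four-parameter logistic fit of % inhibition.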
# NLRP3 inflammasome = NLRP3 inflammasome (Homo sapiens, UniProt Q96P20); assay: IL-1β assay in IFN-γ-differentiated, LPS-primed, ATP-activated THP-1 cells (ELISA); assay type: cell-based; conditions: 50 ng/mL LPS priming, 2.5 mM ATP activation, 2 hours
# NLRP3 inflammasome, sequence (Q96P20 whole entry): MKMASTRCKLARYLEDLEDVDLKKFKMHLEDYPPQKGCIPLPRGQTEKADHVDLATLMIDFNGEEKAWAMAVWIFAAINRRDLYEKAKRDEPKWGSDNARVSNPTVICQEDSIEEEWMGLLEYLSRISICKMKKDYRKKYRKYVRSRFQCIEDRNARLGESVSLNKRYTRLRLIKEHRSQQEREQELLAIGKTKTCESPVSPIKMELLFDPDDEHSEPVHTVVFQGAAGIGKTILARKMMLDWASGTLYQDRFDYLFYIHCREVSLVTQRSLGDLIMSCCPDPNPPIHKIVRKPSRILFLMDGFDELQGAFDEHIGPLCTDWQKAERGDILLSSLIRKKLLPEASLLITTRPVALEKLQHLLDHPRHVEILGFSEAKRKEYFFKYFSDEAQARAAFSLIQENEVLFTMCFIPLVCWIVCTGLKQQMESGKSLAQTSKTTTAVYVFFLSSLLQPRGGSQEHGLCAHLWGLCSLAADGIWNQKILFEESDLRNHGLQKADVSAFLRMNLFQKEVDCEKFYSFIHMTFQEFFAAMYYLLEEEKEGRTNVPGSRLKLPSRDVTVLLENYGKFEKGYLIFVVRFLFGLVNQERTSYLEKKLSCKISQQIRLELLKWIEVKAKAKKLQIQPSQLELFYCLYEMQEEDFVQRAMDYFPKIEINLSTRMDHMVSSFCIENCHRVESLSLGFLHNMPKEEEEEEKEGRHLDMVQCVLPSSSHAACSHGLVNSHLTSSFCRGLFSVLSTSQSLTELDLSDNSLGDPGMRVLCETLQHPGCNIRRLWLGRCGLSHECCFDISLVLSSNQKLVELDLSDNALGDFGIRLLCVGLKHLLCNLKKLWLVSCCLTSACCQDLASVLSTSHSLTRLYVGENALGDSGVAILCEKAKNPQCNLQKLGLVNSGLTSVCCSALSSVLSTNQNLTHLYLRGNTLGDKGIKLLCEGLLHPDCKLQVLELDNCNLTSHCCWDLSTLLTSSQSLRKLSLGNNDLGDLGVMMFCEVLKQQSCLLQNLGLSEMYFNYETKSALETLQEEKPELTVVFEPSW
# In short: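 Supernatant IL-1β is quantified by ELISA after 2 h of 2.5 mM ATP stimulation at 37 °C, with IC50 taken from a four-parameter fit of % inhibition. Before this, THP-1 macrophages (25 ng/mL IFN-γ, 24 h) were LPS-primed (50 ng/mL, 24 h, no FBS) and exposed to serially diluted compound for 30 min.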
# MDR1 (P-gp) = biological target: T1, MDR1 (P-gp) (Homo sapiens, UniProt P08183); assay: MDCK-MDR1 assay (apparent permeability and efflux ratio); assay type: in vitro ADME; conditions: dog; for efflux ratio at 60 min, 1 µM: pH 7.4, MDCK-MDR1, P-gp mediated efflux ratio, read-out: MDR1 ER; for Papp A→B at 60 min, 1 µM: MDCK-MDR1 monolayer, apical to basolateral, pH 7.4, 60 minutes
# T1 construct: expressed in transfected cells; host or cells: Madin-Darby Canine Kidney (MDCK) cells
# T1 sequence (P08183 whole entry, species assumed): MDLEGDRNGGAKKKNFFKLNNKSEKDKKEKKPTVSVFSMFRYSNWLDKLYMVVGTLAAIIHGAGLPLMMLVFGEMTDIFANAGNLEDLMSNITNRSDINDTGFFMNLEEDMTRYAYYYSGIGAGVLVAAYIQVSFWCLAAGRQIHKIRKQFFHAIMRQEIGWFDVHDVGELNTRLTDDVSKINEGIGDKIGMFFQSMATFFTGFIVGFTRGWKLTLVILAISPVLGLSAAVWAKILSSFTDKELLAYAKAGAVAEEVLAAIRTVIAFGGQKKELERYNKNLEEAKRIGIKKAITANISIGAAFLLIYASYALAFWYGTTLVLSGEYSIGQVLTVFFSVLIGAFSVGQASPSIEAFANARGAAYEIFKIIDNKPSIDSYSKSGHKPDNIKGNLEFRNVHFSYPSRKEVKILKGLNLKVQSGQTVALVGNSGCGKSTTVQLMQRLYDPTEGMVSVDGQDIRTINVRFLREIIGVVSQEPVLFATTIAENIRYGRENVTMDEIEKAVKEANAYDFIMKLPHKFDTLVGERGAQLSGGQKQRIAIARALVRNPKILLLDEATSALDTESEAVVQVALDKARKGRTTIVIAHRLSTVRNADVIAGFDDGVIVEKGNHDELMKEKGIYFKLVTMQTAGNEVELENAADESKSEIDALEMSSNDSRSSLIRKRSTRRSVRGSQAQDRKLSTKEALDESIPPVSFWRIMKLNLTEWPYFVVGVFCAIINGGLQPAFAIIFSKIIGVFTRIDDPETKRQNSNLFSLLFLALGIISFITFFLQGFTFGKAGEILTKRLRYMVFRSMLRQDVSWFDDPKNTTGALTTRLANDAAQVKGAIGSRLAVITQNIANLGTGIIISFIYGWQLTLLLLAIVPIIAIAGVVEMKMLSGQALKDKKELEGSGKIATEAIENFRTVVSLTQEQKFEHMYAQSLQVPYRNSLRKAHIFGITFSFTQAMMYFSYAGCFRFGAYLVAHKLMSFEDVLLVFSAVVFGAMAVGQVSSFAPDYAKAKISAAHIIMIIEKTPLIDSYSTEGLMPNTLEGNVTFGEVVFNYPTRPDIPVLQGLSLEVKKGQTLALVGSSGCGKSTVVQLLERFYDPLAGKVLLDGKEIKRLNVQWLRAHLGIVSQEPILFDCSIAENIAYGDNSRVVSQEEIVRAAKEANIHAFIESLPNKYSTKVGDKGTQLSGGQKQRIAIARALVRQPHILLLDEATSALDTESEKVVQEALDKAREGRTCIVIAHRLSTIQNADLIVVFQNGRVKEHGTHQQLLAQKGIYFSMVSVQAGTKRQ
# Description: Madine-Darby Canine Kidney (MDCK) cells transfected with Multidrug resistance protein 1 (MDR1) are maintained in accordance with the provider's instructions in Dulbecco's Modified Eagle media (DMEM, Fisher Scientific Cat #10569044). DMEM is supplemented with 10% heat inactivated fetal bovine serum (Gibco Cat #16000-044), Penicillin-Streptomycin (100 units/mL) (Gibco Cat #15140122) and an inducer of P-gp, colchicine (200 nM) (Sigma Cat #C9754). The cells are seeded onto the apical side of HTS-Transwell-96 Plates (0.4 μm pore size, Corning Cat #3381) at a density of 6.25×10^3 cells per well with 75 μL and 250 μL of DMEM media in apical and basolateral wells, respectively, and are incubated at 37° C./5% CO2. Fresh DMEM media is exchanged in the apical and basolateral compartments after 72 hours and cells are allowed to grow into a monolayer for 144 hours before beginning the experimental incubation. Incubations are performed in Hanks' Balanced Salt Solution (HBSS, Fisher Scientific Cat #14025134) at pH 7.4 with 1% Bovine Serum Albumin (Sigma, Cat #A9418) and 10 mM HEPES (Fisher Scientific, Cat #15630080). DMEM media is removed and cells are rinsed with warm (37° C.) HBSS. HBSS with test compound at 1p M substrate concentration (0.1% v/v DMSO) is added to either the apical or basolateral compartment (75 μL or 250 μL, respectively) and blank HBSS buffer is added to the compartment which lacks test compound in singlicate. The cells are incubated for 60 minutes at 37° C./5% CO2. At the end of the incubation period, 50 μL of sample is removed from each receiver compartment and diluted into 150 μL of acetonitrile (Fisher Scientific, Cat #A996SK4)+0.1% formic acid (Sigma, Cat #F0507). The samples are centrifuged at 2000 rcf for 10 minutes at 4° C., after which 100 μL of supernatant is transferred to a new microplate and diluted with 100 μL of HPLC grade water (Fisher Scientific, Cat #W64). Samples are analyzed using a triple quadrupole mass spectrometer API-5500QTrap (ABSciex, Serial No. AU23291006) along with associated autosampler and high performance liquid chromatography pump instrumentation optimized for the detection of test articles through a Kinetix 2.1×50 mm C18 100 Å column (Phenomenex, Cat #00B-4605-AN).
# Apparent permeability (Papp) values and efflux ratio are calculated using the following equations: […]
SMILES,IC50 (NF-κB pathway) [µM],IC50 (NLRP3 inflammasome) [µM],"efflux ratio at 60 min, 1 µM (MDR1 (P-gp))","Papp A→B at 60 min, 1 µM (MDR1 (P-gp)) [nm/s]"
"Cc1ccc(-c2nnc(N[C@@H]3C[C@@H](F)CN(C)C3)c3c2COCC3)c(O)c1 [Example 201, 2-(1-(((3R,5R)-5-fluoro-1-methylpiperidin-3-yl)amino)-7,8-dihydro-5H-pyrano[3,4-d]pyridazin-4-yl)-5-methylphenol]",> 30,0.01,17,17
"CN1C[C@H](F)C[C@@H](Nc2nnc(-c3ccc(F)cc3O)c3c2CCOC3)C1 [Example 203, 5-fluoro-2-(1-(((3R,5R)-5-fluoro-1-methylpiperidin-3-yl)amino)-7,8-dihydro-5H-pyrano[3,4-d]pyridazin-4-yl)phenol]",> 30,0.032,–,–
"CN1C[C@H](F)C[C@@H](Nc2nnc(-c3ccc(OC(F)(F)F)cc3F)c3c2COCC3)C1 [Example 205, N-((3R,5R)-5-fluoro-1-methylpiperidin-3-yl)-1-(2-fluoro-4-(trifluoromethoxy)phenyl)-7,8-dihydro-5H-pyrano[3,4-d]pyridazin-4-amine]",> 30,0.064,–,–
"COc1ccc(-c2nnc(N[C@@H]3C[C@@H](F)CN(C)C3)c3c2CCOC3)c(C(F)F)c1 [Example 206, 1-(2-(difluoromethyl)-4-methoxyphenyl)-N-((3R,5R)-5-fluoro-1-methylpiperidin-3-yl)-7,8-dihydro-5H-pyrano[3,4-d]pyridazin-4-amine]",> 30,0.425,–,–
"COc1ccc(-c2nnc(N[C@@H]3C[C@@H](F)CN(C)C3)c3c2COCC3)c(C(F)F)c1 [Example 208, 4-(2-(difluoromethyl)-4-methoxyphenyl)-N-((3R,5R)-5-fluoro-1-methylpiperidin-3-yl)-7,8-dihydro-5H-pyrano[3,4-d]pyridazin-1-amine]",> 30,0.853,–,–
"COc1ccc(-c2nnc(N[C@@H]3C[C@@H](F)CN(C)C3)c3c2COCC3)c(F)c1 [Example 209, N-((3R,5R)-5-fluoro-1-methylpiperidin-3-yl)-4-(2-fluoro-4-methoxyphenyl)-7,8-dihydro-5H-pyrano[3,4-d]pyridazin-1-amine]",> 30,1.05,–,–
"COc1ccc(-c2nnc(N[C@@H]3C[C@@H](F)CN(C)C3)c3c2COCC3)c(C(F)(F)F)c1 [Example 210, N-((3R,5R)-5-fluoro-1-methylpiperidin-3-yl)-4-(4-methoxy-2-(trifluoromethyl)phenyl)-7,8-dihydro-5H-pyrano[3,4-d]pyridazin-1-amine]",> 30,0.757,–,–
"CN1C[C@H](F)C[C@@H](Nc2nnc(-c3ccc(Cl)cc3F)c3c2CCOC3)C1 [Example 211, 4-(4-chloro-2-fluorophenyl)-N-((3R,5R)-5-fluoro-1-methylpiperidin-3-yl)-7,8-dihydro-5H-pyrano[3,4-d]pyridazin-1-amine]",> 30,1.15,–,–
"CN1C[C@H](F)C[C@@H](Nc2nnc(-c3ccc(Cl)cc3O)c3c2COCC3)C1 [Example 212, 5-chloro-2-(4-(((3R,5R)-5-fluoro-1-methylpiperidin-3-yl)amino)-7,8-dihydro-5H-pyrano[3,4-d]pyridazin-1-yl)phenol]",> 30,0.002,9,21
"CN1C[C@H](F)C[C@@H](Nc2nnc(-c3ccccc3O)c3c2COCC3)C1 [Example 213, 2-(4-(((3R,5R)-5-fluoro-1-methylpiperidin-3-yl)amino)-7,8-dihydro-5H-pyrano[3,4-d]pyridazin-1-yl)phenol]",> 30,0.028,14,31
"CN1C[C@H](F)C[C@@H](Nc2nnc(-c3ccc(OC(F)(F)F)cc3F)c3c2CCOC3)C1 [Example 214, N-((3R,5R)-5-fluoro-1-methylpiperidin-3-yl)-4-(2-fluoro-4-(trifluoromethoxy)phenyl)-7,8-dihydro-5H-pyrano[3,4-d]pyridazin-1-amine]",> 30,0.556,–,–
"COc1ccc(-c2nnc(N[C@@H]3C[C@@H](F)CN(C)C3)c3c2CCOC3)c(F)c1 [Example 215, N-((3R,5R)-5-fluoro-1-methylpiperidin-3-yl)-1-(2-fluoro-4-methoxyphenyl)-7,8-dihydro-5H-pyrano[3,4-d]pyridazin-4-amine]",> 30,0.16,–,–
"COc1ccc(-c2nnc(N[C@@H]3C[C@@H](F)CN(C)C3)c3c2CCOC3)c(C(F)(F)F)c1 [Example 216, N-((3R,5R)-5-fluoro-1-methylpiperidin-3-yl)-1-(4-methoxy-2-(trifluoromethyl)phenyl)-7,8-dihydro-5H-pyrano[3,4-d]pyridazin-4-amine]",> 30,0.373,–,–
"CN1C[C@H](F)C[C@@H](Nc2nnc(-c3ccc(Cl)cc3F)c3c2COCC3)C1 [Example 217, 1-(4-chloro-2-fluorophenyl)-N-((3R,5R)-5-fluoro-1-methylpiperidin-3-yl)-7,8-dihydro-5H-pyrano[3,4-d]pyridazin-4-amine]",> 30,0.876,–,–
"Cc1ccc(-c2nnc(N[C@@H]3CCCN(C)C3)c3c2CCOC3)c(O)c1 [Example 218, (R)-5-methyl-2-(4-((1-methylpiperidin-3-yl)amino)-7,8-dihydro-5H-pyrano[3,4-d]pyridazin-1-yl)phenol]",> 30,0.002,26,12
"CN1C[C@H](F)C[C@@H](Nc2nnc(-c3ccc(F)cc3O)c3c2COCC3)C1 [Example 219, 5-fluoro-2-(4-(((3R,5R)-5-fluoro-1-methylpiperidin-3-yl)amino)-7,8-dihydro-5H-pyrano[3,4-d]pyridazin-1-yl)phenol]",> 30,0.008,13,47
"Cc1ccc(-c2nnc(N[C@@H]3C[C@@H](F)CN(C)C3)c3c2CCOC3)c(O)c1 [Example 220, 2-(4-(((3R,5R)-5-fluoro-1-methylpiperidin-3-yl)amino)-7,8-dihydro-5H-pyrano[3,4-d]pyridazin-1-yl)-5-methylphenol]",> 30,0.008,9,15
"COc1ccc(-c2nnc(N[C@@H]3CCCN(C)C3)c3c2CCOC3)c(O)c1 [Example 221, (R)-5-methoxy-2-(4-((1-methylpiperidin-3-yl)amino)-7,8-dihydro-5H-pyrano[3,4-d]pyridazin-1-yl)phenol]",> 30,0.003,30,10
"COc1ccc(-c2nnc(N[C@@H]3CCCN(C)C3)c3c2CCOC3)cc1 [Example 222, (R)-1-(4-methoxyphenyl)-N-(1-methylpiperidin-3-yl)-7,8-dihydro-5H-pyrano[3,4-d]pyridazin-4-amine]",> 30,0.049,–,–
"CN1CCC[C@@H](Nc2nnc(-c3ccc(Cl)cc3O)c3c2CCOC3)C1 [Example 224, (R)-5-chloro-2-(1-((1-methylpiperidin-3-yl)amino)-7,8-dihydro-5H-pyrano[3,4-d]pyridazin-4-yl)phenol]",> 30,0.002,–,–
"Cc1ccc(-c2nnc(NC34CCC(O)(CC3)C4)c3c2COCC3)c(O)c1 [Example 232, 4-((4-(2-hydroxy-4-methylphenyl)-7,8-dihydro-5H-pyrano[3,4-d]pyridazin-1-yl)amino)bicyclo[2.2.1]heptan-1-ol]",> 30,0.155,–,–
